Article PMC4471147, “The Effect of Mutations on Drug Sensitivity and Kinase Activity of Fibroblast Growth Factor Receptors: A Combined Experimental and Theoretical Study” (eBioMedicine, 2015)
Several values for one entry are separate records, joined by “and”; a condition that tells them apart may be missing. Equal entries are not always repeated.

Experiments:
LYN = tested on: LYN; parameters: method as in Dieci et al., 2013; settings: ref Dieci et al., 2013; cited from earlier work
PDGFα = tested on: PDGFα; parameters: method as in Dieci et al., 2013; settings: ref Dieci et al., 2013; cited from earlier work
[1] = molecular target: vascular endothelial growth factor receptor (VEGFR); settings: cited from earlier work
[2] = tested on: control (vector only) NIH 3T3 cells; test: Cell viability assay, control NIH 3T3 cells; type: cell-based; settings: for effect on cell viability: concentration range up to 1 μM, 72 h
Procedure: See also Supplemental Table S2. […] See also Supplemental Table S1. C. […] Cell viability was assessed at 72 h. […]
from 3 independent assays. […]
the CellTiter-Blue Cell Viability Assay (Promega). Cells were plated in triplicate in a 96- […]
medium with inhibitor at the indicated concentration. After 3 days with the inhibitor, 20 µl […]
(Berthold technologies). Background signal was removed by subtracting the fluorescence from cell-free wells. Results are from 3 independent assays.

FGFR = settings: ref Dieci et al., 2013; cited from earlier work
SYK = tested on: SYK; parameters: method as in Dieci et al., 2013; settings: ref Dieci et al., 2013; cited from earlier work
[3] = molecular target: T1, FGFR1 V561M kinase domain (Homo sapiens, UniProt P11362, V561M); test: ADP-Glo kinase assay, FGFR1 V561M gatekeeper variant; type: biochemical; parameters: All kinase domain constructs were cloned into pOPINS (OPPF, Oxford, UK) or pJ821; purification tag (captured on HisTrap, removed with Ulp1 protease) (cleaved yes); made in house; host or cells: E. coli C41 (DE3) co-expressing lambda phosphatase and human CDC37 (phospho form: without the accessory plasmid); settings: for change of inhibitor sensitivity by V561M: V561M compared to wild type, in vitro kinase assay
Procedure: The ADP-Glo (Promega) methodology was used for all kinase assays following manufacturers instructions. […] In various experiments the concentrations of these components were varied and this is stated in the text or figure legends. In order to calculate valid inhibition constants (Ki), a number of kinetic parameters needed to be ascertained, in particular, the Km of the kinases for ATP. A thorough Michaelis–Menten kinetic analysis was performed ensuring that all relevant parameters were in the linear range and that the appropriate concentrations of ATP, substrate and kinase were adhered to. All data were processed using Graphpad Prism and parameters presented in Supplemental Tables.
Fig. 1 Kinase activity and inhibition of FGFR1 variants. A. Amino acid alignment of part of the hinge region of the FGFR family and a number of other tyrosine kinases with reported gatekeeper mutations. The gatekeeper residue in each case is numbered and bordered in dark grey. The FGFR 1 to 3 tyrosine that is a cysteine in FGFR4 is highlighted in light grey. B. Histogram showing the inhibition constants (Ki) for four selected compounds upon FGFR1 kinase domain protein, wild type and the indicated mutants. The data were generated from enzyme kinetic analyses using various concentrations of inhibitors and fitting using the Morrison equation within Graphpad Prism. Each data point was repeated in duplicate and the standard error of the mean is presented on each bar. C. Left panel: comparison of the activity of FGFR1 apo (WT-apo) and phosphorylated (WT-2P) kinase domain protein produced using the ADP-Glo Assay. Each data point was produced in triplicate and the standard errors are indicated. Right panel: comparison of the enzyme efficiency (kcat/Km) of FGFR1 apo and phosphorylated protein. Parameters were generated through Michaelis–Menten kinetic experiments and analysed using Graphpad Prism software. […] The data in B–D are representative for 3–4 independent experiments. See also Supplemental Tables S1 and S2.

KIT = settings: ref Dieci et al., 2013; cited from earlier work
[4] = tested on: KMS-11 cells harbouring FGFR3 Y373C, V555M; parameters: method as in Chell et al., 2013; settings: 1 μM; ref Chell et al., 2013; cited from earlier work
[5] = tested on: NIH 3T3 cell line expressing FGFR3-TACC3 V555M; settings: increasing concentrations, 72 h
From the text: (§1) Data were fit with a one-phase association model (for presentation purposes only) using Graphpad prism. Each data point was produced in triplicate and the standard errors are indicated. […] Parameters were generated through Michaelis–Menten kinetic experiments and analysed using Graphpad Prism software. See also Supplemental Table S2. […] The data were generated from enzyme kinetic analyses using various concentrations of inhibitors and fitting using the Morrison equation within Graphpad Prism. Each data point was repeated in duplicate and the standard error of the mean is presented on each bar. See also Supplemental Table S1. C. […] Bottom panels show morphology of NIH3T3 cells expressing the indicated constructs. […] Cell viability was assessed at 72 h. […]
(§2) Cells were seeded in triplicate at 1x10^5 cells per well in 6-well plates, fed every 2-3 days and trypsinised and counted after 7 days, using a coulter counter (Beckman). […]
(§3) The amount of viable cells following culture with kinase inhibitors was measured using the CellTiter-Blue Cell Viability Assay (Promega). […] After 3 days with the inhibitor, 20 µl of cell titer blue reagent was added for 2 hours, and fluorescence measured with excitation at 540 nm and emission at 590 nm, using a Mithras LB940 plate reader (Berthold technologies). Background signal was removed by subtracting the fluorescence from cell-free wells. […]

[6] = tested on: NIH 3T3 cells expressing FGFR3-TACC3 fusion protein; test: Cell viability assay, FGFR3-TACC3 NIH 3T3 cells; type: cell-based; settings: increasing concentrations, 72 h
From the text: as §1, §2, §3

[7] = tested on: mutations of the gatekeeper residue in all FGFR receptors; parameters: method as in Tan et al., 2014; settings: ref Tan et al., 2014; cited from earlier work
[8] = tested on: NIH 3T3 cells expressing FGFR3 WT; test: Cell viability assay, FGFR3 WT NIH 3T3 cells; type: cell-based; settings: increasing concentrations of inhibitor
Procedure: Cells were seeded in triplicate at 1x10^5 cells per well in 6-well plates, fed every 2-3 days and trypsinised and counted after 7 days, using a coulter counter (Beckman). Results are from 3 independent assays.
The amount of viable cells following culture with kinase inhibitors was measured using the CellTiter-Blue Cell Viability Assay (Promega). Cells were plated in triplicate in a 96-well plate at 2x10^3 cells/well and left to attach overnight before the addition of fresh medium with inhibitor at the indicated concentration. After 3 days with the inhibitor, 20 µl of cell titer blue reagent was added for 2 hours, and fluorescence measured with excitation at 540 nm and emission at 590 nm, using a Mithras LB940 plate reader (Berthold technologies). Background signal was removed by subtracting the fluorescence from cell-free wells. Results are from 3 independent assays.

[9] = molecular target: T1, FGFR1 V561M kinase domain; test: Isothermal titration calorimetry, FGFR1 V561M
FGFR1 WT kinase domain = FGFR1 WT kinase domain (Homo sapiens, UniProt P11362); test: Isothermal titration calorimetry, FGFR1 WT; settings: ITC, 20 °C
[10] = molecular target: FGFR1 Y563C kinase domain (Homo sapiens, UniProt P11362, Y563C); test: Isothermal titration calorimetry, FGFR1 Y563C
FGFR3 WT kinase domain = FGFR3 WT kinase domain (Homo sapiens, UniProt P22607); test: Isothermal titration calorimetry, FGFR3 WT; settings: ITC, 20 °C

Cc1ccc(C(=O)Nc2ccc(CN3CCN(C)CC3)c(C(F)(F)F)c2)cc1C#Cc1cnc2cccnn12 [AP24534]
IC50 (LYN): […] | IC50 (PDGFα): 1 to 2.5 nM | IC50 [1]: 1 to 2.5 nM | inhibition at 1 µM ([2]; Mus musculus, NIH3T3, read-out: inhibitory effects under control condition): > 60% | IC50 (FGFR): 1 to 2.5 nM | IC50 (SYK): 0.2 to 0.4 nM | change of inhibitor sensitivity by V561M [3]: marginal effect on sensitivity

CN1CCN(c2ccc3nc(-c4c(N)c5c(F)cccc5[nH]c4=O)[nH]c3c2)CC1 [TKI258]
effect on cell viability [2]: very little or no effect | IC50 (KIT): […]

AZD4547
effect on cells [4]: only marginally affected | effect on cell viability [2]: very little or no effect | effect on cell viability [5]: completely ineffective | change of inhibitor sensitivity by V561M [3]: clear reduction of sensitivity | effect on cell viability [6]: most effective

C=CC(=O)Nc1ccc(CN2C(=O)N(c3cc(OC)cc(OC)c3)Cc3cnc(Nc4ccc(N5CCN(C)CC5)cc4)nc32)cc1 [FIIN2]
efficacy towards gatekeeper mutations [7]: proved effective

CCN(CC)CCCCNc1ncc2cc(-c3cc(OC)cc(OC)c3)c(NC(=O)NC(C)(C)C)nc2n1 [PD173074]
effect on cell viability [8]: unaffected | -TΔS ([9]; ITC, 20 °C): -5.3 ± 0.14 kcal/mol | n (number of binding sites) ([9]; ITC, 20 °C): 0.80 ± 0.006 | ΔG ([9]; ITC, 20 °C): -8.7 ± 0.10 kcal/mol | ΔH ([9]; ITC, 20 °C): -3.4 ± 0.04 kcal/mol | ΔΔGexp (binding free energy difference, mutant − WT) ([9]; V561M versus WT, from ITC, standard deviation in parentheses): 2.73 ± 0.18 kcal/mol and 2.73 (0.18) kcal/mol | effect on cell viability [2]: very little or no effect | -TΔS (FGFR1 WT kinase domain): -3.7 ± 0.1 kcal/mol | n (number of binding sites) (FGFR1 WT kinase domain): 0.91 ± 0.0007 | ΔG (FGFR1 WT kinase domain): -11.4 ± 0.09 kcal/mol | ΔH (FGFR1 WT kinase domain): -7.7 ± 0.01 kcal/mol | -TΔS ([10]; ITC, 20 °C): -4.1 ± 0.14 kcal/mol | n (number of binding sites) ([10]; ITC, 20 °C): 0.66 ± 0.002 | ΔG ([10]; ITC, 20 °C): -10.5 ± 0.11 kcal/mol | ΔH ([10]; ITC, 20 °C): -6.4 ± 0.03 kcal/mol | ΔΔGexp (binding free energy difference, mutant − WT) ([10]; Y563C versus WT, from ITC, uncertainty in parentheses): 0.97 kcal/mol | -TΔS (FGFR3 WT kinase domain): -0.1 ± 0.32 kcal/mol | n (number of binding sites) (FGFR3 WT kinase domain): 0.89 ± 0.002 | ΔG (FGFR3 WT kinase domain): -11.5 ± 0.25 kcal/mol | ΔH (FGFR3 WT kinase domain): -11.4 ± 0.07 kcal/mol | change of inhibitor sensitivity by V561M [3]: clear reduction of sensitivity | reduction of potency on the gatekeeper variant ([3]; V561M versus WT FGFR1): up to 225 fold | effect on cell viability [6]: selectively inhibited

C=CC(=O)Nc1ccc(CN(C(=O)Nc2c(Cl)c(OC)cc(OC)c2Cl)c2cc(Nc3ccc(N4CCN(C)CC4)cc3)ncn2)cc1 [FIIN3]
efficacy towards gatekeeper mutations [7]: proved effective
